The compounds below were run on HEK293T cells carrying the ATF4 luciferase reporter (assay: ATF4-Luc assay, in vitro model of Vanishing Cell White Matter Disease (VWMD)). Details: Homo sapiens, HEK-293T, 1 μg/mL tunicamycin, 7 hours, One Glo luminescence.
Format: cell-based
Summary of the method: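 Compound at 200 nM and tunicamycin at 1 μg/mL were given together for 7 h to HEK293T cells stably transduced with an ATF4 5′-UTR-driven firefly luciferase reporter. Read-out by luminescence, reported as EC50.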

**Q.** O=C(COc1ccc(Cl)c(F)c1)NC12CC(NC(=O)c3ccc(C(F)F)nc3)(C1)C2 [Compound 207, N-{3-[2-(4-chloro-3-fluorophenoxy)acetamido]bicyclo[1.1.1]pentan-1-yl}-6-(difluoromethyl)pyridine-3-carboxamide] was tested. Which EC50 did it give?
**A.** 50 to 250 nM

**Q.** Which EC50 does the source give for Cc1ccnc(C(=O)NC23CC(NC(=O)COc4ccc(Cl)c(F)c4)(C2)C3)c1 [Compound 525, N-{3-[2-(4-chloro-3-fluorophenoxy)acetamido]bicyclo[1.1.1]pentan-1-yl}-4-methylpyridine-2-carboxamide] here?
**A.** 250 to 1000 nM

**Q.** How did the EC50 turn out when O=C(COc1ccc(Cl)c(F)c1)NC12CC(NC(=O)c3ccccc3F)(C1)C2 [Compound 507, N-{3-[2-(4-chloro-3-fluorophenoxy)acetamido]bicyclo[1.1.1]pentan-1-yl}-2-fluorobenzamide] was run?
**A.** 250 to 1000 nM

**Q.** For O=C(COc1ccc(Cl)c(F)c1)NC12CCC(NC(=O)c3cc4nccnc4s3)(CC1)CC2O (stereo not drawn) [Compound 627, N-{4-[2-(4-chloro-3-fluorophenoxy)acetamido]-3-hydroxybicyclo[2.2.2]octan-1-yl}thieno[2,3-b]pyrazine-6-carboxamide], which EC50 is on record?
**A.** > 2000 nM

**Q.** Which EC50 does the source give for CSCc1ccc(C(=O)NC23CC(NC(=O)COc4ccc(Cl)c(F)c4)(C2)C3)o1 [Compound 830, N-{3-[2-(4-chloro-3-fluorophenoxy)acetamido]bicyclo[1.1.1]pentan-1-yl}-5-[(methylsulfanyl)methyl]furan-2-carboxamide] here?
**A.** 50 to 250 nM

**Q.** Which EC50 does the source give for CC(C)c1cc(C(=O)NC23CC(NC(=O)COc4ccc(Cl)c(F)c4)(C2)C3)no1 [Compound 255, N-{3-[2-(4-chloro-3-fluorophenoxy)acetamido]bicyclo[1.1.1]pentan-1-yl}-5-(propan-2-yl)-1,2-oxazole-3-carboxamide] here?
**A.** 250 to 1000 nM

**Q.** Which EC50 does the source give for CCn1ccc(C(=O)NC23CC(NC(=O)COc4ccc(Cl)c(F)c4)(C2)C3)n1 [Compound 850, N-{3-[2-(4-chloro-3-fluorophenoxy)acetamido]bicyclo[1.1.1]pentan-1-yl}-1-ethyl-1H-pyrazole-3-carboxamide] here?
**A.** 50 to 250 nM

**Q.** With COc1ccc(C(=O)NC23CC(NC(=O)COc4ccc(Cl)c(F)c4)(C2)C3)cc1F [Compound 530, N-{3-[2-(4-chloro-3-fluorophenoxy)acetamido]bicyclo[1.1.1]pentan-1-yl}-3-fluoro-4-methoxybenzamide] as the compound, how does the EC50 read?
**A.** 250 to 1000 nM

**Q.** How did the EC50 turn out when N#CCc1ccccc1C(=O)NC12CC(NC(=O)COc3ccc(Cl)c(F)c3)(C1)C2 [Compound 206, N-{3-[2-(4-chloro-3-fluorophenoxy)acetamido]bicyclo[1.1.1]pentan-1-yl}-2-(cyanomethyl)benzamide] was run?
**A.** 250 to 1000 nM

**Q.** For Cc1cc(C(=O)NC23CCC(NC(=O)COc4ccc(Cl)c(Cl)c4)(CC2)[C@@H](O)C3)on1 [Compound 759, N-{(3S)-4-[2-(3,4-dichlorophenoxy)acetamido]-3-hydroxybicyclo[2.2.2]octan-1-yl}-3-methyl-1,2-oxazole-5-carboxamide], which EC50 is on record?
**A.** < 50 nM

**Q.** Which EC50 does the source give for Cc1nc(C(=O)NC23CCC(NC(=O)COc4ccc(Cl)c(F)c4)(CC2)C(O)C3)c(C)o1 (stereo not drawn) [Compound 472, N-{4-[2-(4-chloro-3-fluorophenoxy)acetamido]-3-hydroxybicyclo[2.2.2]octan-1-yl}-2,5-dimethyl-1,3-oxazole-4-carboxamide] here?
**A.** 250 to 1000 nM

**Q.** O=C(COc1ccc(Cl)c(F)c1)NC12CC(NC(=O)c3cc(C4CC4)no3)(C1)C2 [Compound 244, N-{3-[2-(4-chloro-3-fluorophenoxy)acetamido]bicyclo[1.1.1]pentan-1-yl}-3-cyclopropyl-1,2-oxazole-5-carboxamide] was tested. Which EC50 did it give?
**A.** 50 to 250 nM

**Q.** With O=C(COc1ccc(Cl)c(F)c1)NC12CC(NC(=O)c3n[nH]c4ccccc34)(C1)C2 [Compound 318, N-{3-[2-(4-chloro-3-fluorophenoxy)acetamido]bicyclo[1.1.1]pentan-1-yl}-1H-indazole-3-carboxamide] as the compound, how does the EC50 read?
**A.** > 2000 nM

**Q.** Which EC50 does the source give for Cn1c(=O)n(C)c2cc(C(=O)NC34CC(NC(=O)COc5ccc(Cl)c(F)c5)(C3)C4)ccc21 [Compound 776, N-{3-[2-(4-chloro-3-fluorophenoxy)acetamido]bicyclo[1.1.1]pentan-1-yl}-1,3-dimethyl-2-oxo-2,3-dihydro-1H-benzimidazole-5-carboxamide] here?
**A.** > 2000 nM

**Q.** Which EC50 does the source give for O=C(COc1ccc(Cl)c(F)c1)NC12CC(NC(=O)c3cnc(O)[nH]3)(C1)C2 [Compound 812, N-{3-[2-(4-chloro-3-fluorophenoxy)acetamido]bicyclo[1.1.1]pentan-1-yl}-2-hydroxy-1H-imidazole-5-carboxamide] here?
**A.** 1000 to 2000 nM

**Q.** How did the EC50 turn out when Cc1coc(C(=O)NC23CC(NC(=O)COc4ccc(Cl)c(F)c4)(C2)C3)c1 [Compound 613, N-{3-[2-(4-chloro-3-fluorophenoxy)acetamido]bicyclo[1.1.1]pentan-1-yl}-4-methylfuran-2-carboxamide] was run?
**A.** 50 to 250 nM

**Q.** With CCc1ccc(C(=O)NC23CC(NC(=O)COc4ccc(Cl)c(F)c4)(C2)C3)cc1 [Compound 761, N-{3-[2-(4-chloro-3-fluorophenoxy)acetamido]bicyclo[1.1.1]pentan-1-yl}-4-ethylbenzamide] as the compound, how does the EC50 read?
**A.** > 2000 nM

**Q.** For Cc1cc2c(NC34CC(NC(=O)COc5ccc(Cl)c(Cl)c5)(C3)C4)nccn2n1 [Compound 494, 2-(3,4-dichlorophenoxy)-N-{3-[(2-methylpyrazolo[1,5-a]pyrazin-4-yl)amino]bicyclo[1.1.1]pentan-1-yl}acetamide], which EC50 is on record?
**A.** < 50 nM

**Q.** With O=C(COc1ccc(Cl)c(F)c1)NC12CC(NC(=O)c3cccc(Cn4cncn4)c3)(C1)C2 [Compound 892, N-{3-[2-(4-chloro-3-fluorophenoxy)acetamido]bicyclo[1.1.1]pentan-1-yl}-3-[(1H-1,2,4-triazol-1-yl)methyl]benzamide] as the compound, how does the EC50 read?
**A.** 250 to 1000 nM

**Q.** With CCc1ccnc(C(=O)NC23CCC(NC(=O)COc4ccc(Cl)c(F)c4)(CC2)C(O)C3)c1 (stereo not drawn) [Compound 918, N-{4-[2-(4-chloro-3-fluorophenoxy)acetamido]-3-hydroxybicyclo[2.2.2]octan-1-yl}-4-ethylpyridine-2-carboxamide] as the compound, how does the EC50 read?
**A.** 250 to 1000 nM

**Q.** With O=C(COc1ccc(Cl)c(Cl)c1)NC12CCC(NC(=O)c3cnc(-c4ccc(Cl)c(F)c4)o3)(C1)C2 [Compound 110, 2-(4-chloro-3-fluorophenyl)-N-{4-[2-(3,4-dichlorophenoxy)acetamido]bicyclo-[2.1.1]hexan-1-yl}-1,3-oxazole-5-carboxamide] as the compound, how does the EC50 read?
**A.** 50 to 250 nM

**Q.** How did the EC50 turn out when O=C(COc1ccc(Cl)c(F)c1)NC12CC(NC(=O)c3scc4c3OCCO4)(C1)C2 [Compound 873, N-{3-[2-(4-chloro-3-fluorophenoxy)acetamido]bicyclo[1.1.1]pentan-1-yl}-2,3-dihydrothieno[3,4-b][1,4]dioxine-5-carboxamide] was run?
**A.** > 2000 nM

**Q.** For COc1cc(C(=O)NC23CCC(NC(=O)COc4ccc(Cl)c(F)c4)(CC2)C(O)C3)on1 (stereo not drawn) [Compound 576, N-{4-[2-(4-chloro-3-fluorophenoxy)acetamido]-3-hydroxybicyclo[2.2.2]octan-1-yl}-3-methoxy-1,2-oxazole-5-carboxamide], which EC50 is on record?
**A.** 50 to 250 nM

**Q.** How did the EC50 turn out when COc1cccc(F)c1C(=O)NC12CC(NC(=O)COc3ccc(Cl)c(F)c3)(C1)C2 [Compound 528, N-{3-[2-(4-chloro-3-fluorophenoxy)acetamido]bicyclo[1.1.1]pentan-1-yl}-2-fluoro-6-methoxybenzamide] was run?
**A.** > 2000 nM

**Q.** How did the EC50 turn out when Cc1nc(C(=O)NC23CCC(NC(=O)COc4ccc(Cl)c(F)c4)(CC2)C(O)C3)ccc1F (stereo not drawn) [Compound 917, N-{4-[2-(4-chloro-3-fluorophenoxy)acetamido]-3-hydroxybicyclo[2.2.2]octan-1-yl}-5-fluoro-6-methylpyridine-2-carboxamide] was run?
**A.** 50 to 250 nM

**Q.** Which EC50 does the source give for O=C(COc1ccc(Cl)c(F)c1)NC12CC(NC(=O)c3ccn4nccc4n3)(C1)C2 [Compound 631, N-{3-[2-(4-chloro-3-fluorophenoxy)acetamido]bicyclo[1.1.1]pentan-1-yl}pyrazolo[1,5-a]pyrimidine-5-carboxamide] here?
**A.** 50 to 250 nM

**Q.** For O=C(COc1ccc(Cl)c(Cl)c1)NC12CC(NC(=O)c3cnc(C4CC4)o3)(C1)C2 [Compound 614, 2-cyclopropyl-N-{3-[2-(3,4-dichlorophenoxy)acetamido]bicyclo[1.1.1]pentan-1-yl}-1,3-oxazole-5-carboxamide], which EC50 is on record?
**A.** 50 to 250 nM

**Q.** Which EC50 does the source give for COCCCc1cnc(C(=O)NC23CC(NC(=O)COc4ccc(Cl)c(F)c4)(C2)C3)cn1 [Compound 172, N-{3-[2-(4-chloro-3-fluorophenoxy)acetamido]bicyclo[1.1.1]pentan-1-yl}-5-(3-methoxypropyl)pyrazine-2-carboxamide] here?
**A.** 250 to 1000 nM

**Q.** How did the EC50 turn out when Cc1ccc(C(=O)NC23CCC(NC(=O)COc4ccc(Cl)c(F)c4)(CC2)C(O)C3)o1 (stereo not drawn) [Compound 624, N-{4-[2-(4-chloro-3-fluorophenoxy)acetamido]-3-hydroxybicyclo[2.2.2]octan-1-yl}-5-methylfuran-2-carboxamide] was run?
**A.** 50 to 250 nM

**Q.** How did the EC50 turn out when COc1cccc(C(=O)NC23CCC(NC(=O)COc4ccc(Cl)c(F)c4)(CC2)C(O)C3)n1 (stereo not drawn) [Compound 923, N-{4-[2-(4-chloro-3-fluorophenoxy)acetamido]-3-hydroxybicyclo[2.2.2]octan-1-yl}-6-methoxypyridine-2-carboxamide] was run?
**A.** 50 to 250 nM

**Q.** For O=C(COc1ccc(Cl)c(F)c1)NC12CCC(NC(=O)c3cccc(N4CCOCC4)n3)(CC1)CC2O (stereo not drawn) [Compound 942, N-{4-[2-(4-chloro-3-fluorophenoxy)acetamido]-3-hydroxybicyclo[2.2.2]octan-1-yl}-6-(morpholin-4-yl)pyridine-2-carboxamide], which EC50 is on record?
**A.** 1000 to 2000 nM

**Q.** With O=C(COc1ccc(Cl)cc1)NC12CC(NC(=O)c3ccc(OC(F)(F)F)nc3)(C1)C2 [Compound 570, N-{3-[2-(4-chlorophenoxy)acetamido]bicyclo[1.1.1]pentan-1-yl}-6-(trifluoromethoxy)pyridine-3-carboxamide] as the compound, how does the EC50 read?
**A.** 50 to 250 nM

**Q.** How did the EC50 turn out when O=C(COc1ccc(Cl)c(F)c1)NC12CC(NC(=O)c3ncc(F)cc3F)(C1)C2 [Compound 910, N-{3-[2-(4-chloro-3-fluorophenoxy)acetamido]bicyclo[1.1.1]pentan-1-yl}-3,5-difluoropyridine-2-carboxamide] was run?
**A.** 50 to 250 nM
